# According to patent US8178506B2, “Oligomeric compounds and compositions for use in modulation of small non-coding RNAs” (Regulus Therapeutics Inc., priority 2003, dated 2012):
# In the oligonucleotide strings, read from the 5' end, every base follows the letter of its sugar. An asterisk marks phosphorothioate; unmarked linkages are phosphodiester. Other units and linkages are bracketed, terminal groups are in braces. A string of capitals states the bases alone. e = 2'-O-(2-methoxyethyl) (MOE); [5mC] = 5-methylcytosine; d = 2'-deoxy (DNA)
# Experiments:
# [1] = system: HeLa cells; assay: Cell cycle assay in HeLa cells; format: cell-based, human; conditions: for % cells in cell cycle phase G1 / % cells in cell cycle phase G2/M / % cells in cell cycle phase S / % cells in cell cycle phase aneuploid / % cells in cell cycle phase subG1 / % cells aneuploid / % cells in cell cycle phase: G1 / % cells in cell cycle phase: G2/M / % cells in cell cycle phase: S / % cells in cell cycle phase: aneuploid / % cells in cell cycle phase: subG1: HeLa cells; for % cells in cell cycle phase: G1 / % cells in cell cycle phase: G2/M / % cells in cell cycle phase: S / % cells in cell cycle phase: aneuploid / % cells in cell cycle phase: subG1: 48 hours after treatment, relative to untreated control (UTC=100)
# [2] = system: BJ cells; assay: Cell cycle assay in BJ cells; format: cell-based, human; conditions: 200 nM, 48 hours; for % cells in cell cycle phase G1 / % cells in cell cycle phase G2/M / % cells in cell cycle phase S / % cells in cell cycle phase aneuploid / % cells in cell cycle phase subG1: relative to untreated control
# Experimental: (§1) BJ cells were routinely cultured in MEM high glucose with 2 mM L-glutamine and Earle's BSS adjusted to contain 1.5 g/L sodium bicarbonate and supplemented with 10% fetal bovine serum, 0.1 mM non-essential amino acids and 1.0 mM sodium pyruvate (all media and supplements from Invitrogen Life Technologies, Carlsbad, Calif.). B16-F10 cells were routinely cultured in DMEM high glucose (Invitrogen Life Technologies, Carlsbad, Calif.) supplemented with 10% fetal bovine serum (Invitrogen Life Technologies, Carlsbad, Calif.). T47D cells were cultured in DMEM High glucose media (Invitrogen Life Technologies, Carlsbad, Calif.) supplemented with 10% fetal bovine serum. […] Cells were plated on collagen-coated 24-well plates (Falcon-Primaria #3047, BD Biosciences, Bedford, Mass.) at approximately 50,000 cells per well and allowed to attach to wells overnight.
# (§2) In further studies, additional cell lines were treated with oligomeric compounds targeted against miRNAs to assess the effects of each oligomeric compound on cell cycling. BJ, B16, T47D, and HeLa cells were cultured and transfected as described above. […] T47Dp53 cells are T47D cells that have been transfected with and selected for maintenance of a plasmid that expresses a wildtype copy of the p53 gene (for example, pCMV-p53; Clontech, Palo Alto, Calif.), using standard laboratory procedures. BJ cells were treated with 200 nM of each oligomeric compound, and T47D, T47Dp53, HeLa, and B16 cells were treated with 150 nM of each oligomeric compound. The human foreskin fibroblast BJ cell line represents a non-cancer cell line, while HeLa, T47D, T47Dp53 cells and the mouse melanoma cell line B16-F10 represent cancerous cell lines. For comparison, oligomeric compounds ISIS 183891 (SEQ ID NO: 847) and ISIS 285717 ([…]; herein incorporated as SEQ ID NO: 857), both targeting the kinesin-like 1/Eg5 mRNA, involved in cell cycling, were used as positive controls. The random-mer ISIS 29848 was used as a negative control. Additionally, the oligomeric compounds ISIS Number 25690 ([…]; herein incorporated as SEQ ID NO: 858) and ISIS Number 25691 ([…]; herein incorporated as SEQ ID NO: 859), targeted to nucleotides 3051-3070 and 3085-3104, respectively, of the mRNA encoding the Drosha RNase III (GenBank Accession NM_013235.2, incorporated herein as SEQ ID NO: 860) were also tested. ISIS Number 25690 and ISIS Number 25691 are 5-10-52′-MOE gapmer compounds, 20 nucleotides in length, with phosphorothioate internucleoside linkages throughout the oligomeric compound. All cytidine residues are 5-methylcytidines. Transfections were performed using the methods described herein. Cells were prepared for flow cytometry 48-hours after oligonucleotide treatment. Results of these studies are shown in Table 35, where data are expressed as percentage of cells in each phase relative to the untreated control cells in that phase.
# [3] = system: B16-F10 cells; assay: Cell cycle assay in B16-F10 cells; format: cell-based, mouse; conditions: 150 nM, 48 hours, relative to untreated control
# Experimental: as §1, §2
# [4] = system: T47D cells; assay: Cell cycle assay in T47D cells; format: cell-based, human; conditions: 150 nM, 48 hours, relative to untreated control
# Experimental: as §1, §2
# [5] = system: T47Dp53 cells; assay: Cell cycle assay in T47Dp53 cells; format: cell-based, human; conditions: 150 nM, 48 hours; for % cells in cell cycle phase G1 / % cells in cell cycle phase G2/M / % cells in cell cycle phase S / % cells in cell cycle phase aneuploid / % cells in cell cycle phase subG1: relative to untreated control
# Experimental: as §2
# [6] = system: preadipocytes / differentiating adipocytes; assay: Adipocyte differentiation assay, markers taken together; format: cell-based, human; conditions: differentiating adipocytes, % of UTC (Table 55)
# Experimental: Oligomeric compounds of the invention are tested for their effects on preadipocyte differentiation. […] For the other adipocyte differentiation markers assayed, an oligomeric compound targeted to PPAR-γ, also known to inhibit adipocyte differentiation, may be used as a positive control.
# Cells are transfected as described herein. […] Untreated control cells receive LIPOFECTIN™ only.
# After the cells have reach confluence (approximately three days), they are exposed for an additional three days to differentiation medium (Zen-Bio, Inc., Research Triangle Park, N.C.) containing a PPAR-γ agonist, IBMX, dexamethasone, and insulin. Cells are then fed adipocyte medium (Zen-Bio, Inc.), which is replaced at 2 or 3 day intervals.
# For assaying adipocyte differentiation, expression of the four hallmark genes, HSL, aP2, Glut4, and PPARγ, as well as triglyceride (TG) accumulation and leptin secretion were measured in adipocytes transfected with the uniform 2′-MOE phosphorothioate (PS) oligomeric compounds previously described. Cells are lysed on day nine post-transfection, in a guanadinium-containing buffer and total RNA is harvested. Real-time PCR is performed (Applied Biosystems, Prism 7700) on the total RNA using the following primer/probe sets for the adipocyte differentiation hallmark genes: (aP2): forward 5′-GGTGGTGGAATGCGTCATG-3′ (SEQ ID NO: 746), reverse 5′-[…]-3′ (SEQ ID NO: 747), probe 5′-FAM-[…]-TAMRA-3′ (SEQ ID NO: 748); (Glut4): forward 5′-GGCCTCCGCAGGTTCTG-3′ (SEQ ID NO: 749), reverse 5′-[…]-3′ (SEQ ID NO: 750), probe 5′-FAM-[…]-TAMRA-3′ (SEQ ID NO: 751); (HSL): forward 5′-ACCTGCGCACAATGACACA-3′ (SEQ ID NO: 752), reverse 5′-[…]-3′ (SEQ ID NO: 753), probe 5′-FAM-[…]-TAMRA-3′ (SEQ ID NO: 754); (PPAR-γ): forward 5′-[…]-3′ (SEQ ID NO: 755), reverse 5′-[…]-3′ (SEQ ID NO: 756), probe 5′-FAM-[…]-TAMRA-3′ (SEQ ID NO: 757). The amount of total RNA in each sample is determined using a Ribogreen Assay (Molecular Probes, Eugene, Oreg.), and expression levels of the adipocyte differentiation hallmark genes were normalized to total RNA. Leptin protein and triglyceride levels as well as mRNA levels for each of the four adipocyte differentiation hallmark genes are expressed relative to control levels (control=treatment with ISIS-29848 (SEQ ID NO: 737)).
# In some embodiments, differentiating adipocytes were treated with uniform 2′-MOE phosphorothioate oligomeric compounds according to the methods described above, and the expression of the four hallmark genes, HSL, aP2, Glut4, and PPARγ, as well as triglyceride (TG) accumulation were measured. […] Undifferentiated adipocytes were also compared as a negative control. […] The effects of TNF-α, also known to inhibit adipocyte differentiation, were also measured.
# [7] = system: HuVECs; assay: Endothelial tube formation assay in HuVECs; conditions: 75 nM
# [8] = 150 nM, 48 hours, relative to untreated control
# [9] = 150 nM oligomeric compound, 24 hours, relative to untreated control (UTC = 100)
substance,measurement,setting,value
25691 (antisense eG*e[5mC]*e[5mC]*eA*eA*dG*dG*d[5mC]*dG*dT*dG*dA*d[5mC]*dA*dT*eG*eA*eT*eA*eT) [compound 25691],% cells in cell cycle phase G1,[1]; [8],53%
same,% cells in cell cycle phase G2/M,[1]; [8],113%
same,% cells in cell cycle phase S,[1]; [8],141%
same,% cells in cell cycle phase aneuploid,[1]; [8],203%
same,% cells in cell cycle phase subG1,[1]; [8],881%
same,% cells in cell cycle phase G1,[2],94%
same,% cells in cell cycle phase G2/M,[2],125%
same,% cells in cell cycle phase S,[2],116%
same,% cells in cell cycle phase aneuploid,[2],209%
same,% cells in cell cycle phase subG1,[2],183%
same,% cells in cell cycle phase G1,[3],116%
same,% cells in cell cycle phase G2/M,[3],99%
same,% cells in cell cycle phase S,[3],83%
same,% cells in cell cycle phase aneuploid,[3],105%
same,% cells in cell cycle phase subG1,[3],316%
same,% cells in cell cycle phase G1,[4],94%
same,% cells in cell cycle phase G2/M,[4],104%
same,% cells in cell cycle phase S,[4],104%
same,% cells in cell cycle phase aneuploid,[4],203%
same,% cells in cell cycle phase subG1,[4],125%
same,% cells in cell cycle phase G1,[5],130%
same,% cells in cell cycle phase G2/M,[5],93%
same,% cells in cell cycle phase S,[5],66%
same,% cells in cell cycle phase aneuploid,[5],95%
same,% cells in cell cycle phase subG1,[5],212%
328744 (antisense e[5mC]*eG*eG*eA*eT*d[5mC]*d[5mC]*dT*dG*dT*dT*dA*d[5mC]*d[5mC]*dT*e[5mC]*eA*e[5mC]*e[5mC]*eA) [compound 328744],% cells aneuploid,[1]; [9],111%
same,% cells in cell cycle phase G1,[1]; [9],31%
same,% cells in cell cycle phase G2/M,[1]; [9],167%
same,% cells in cell cycle phase S,[1]; [9],108%
same,% cells in cell cycle phase subG1,[1]; [9],229%
same,% cells in cell cycle phase: G1,[1]; 150 nM oligomeric compound,31%
same,% cells in cell cycle phase: G2/M,[1]; 150 nM oligomeric compound,334%
same,% cells in cell cycle phase: S,[1]; 150 nM oligomeric compound,78%
same,% cells in cell cycle phase: aneuploid,[1]; 150 nM oligomeric compound,171%
same,% cells in cell cycle phase: subG1,[1]; 150 nM oligomeric compound,1774%
same,% cells in cell cycle phase G1,[1]; [8],53%
same,% cells in cell cycle phase G2/M,[1]; [8],213%
same,% cells in cell cycle phase S,[1]; [8],110%
same,% cells in cell cycle phase aneuploid,[1]; [8],178%
same,% cells in cell cycle phase subG1,[1]; [8],1057%
same,% cells in cell cycle phase G1,[2],94%
same,% cells in cell cycle phase G2/M,[2],127%
same,% cells in cell cycle phase S,[2],111%
same,% cells in cell cycle phase aneuploid,[2],158%
same,% cells in cell cycle phase subG1,[2],125%
same,% cells in cell cycle phase G1,[3],108%
same,% cells in cell cycle phase G2/M,[3],110%
same,% cells in cell cycle phase S,[3],87%
same,% cells in cell cycle phase aneuploid,[3],115%
same,% cells in cell cycle phase subG1,[3],153%
same,% cells in cell cycle phase G1,[4],90%
same,% cells in cell cycle phase G2/M,[4],118%
same,% cells in cell cycle phase S,[4],87%
same,% cells in cell cycle phase aneuploid,[4],191%
same,% cells in cell cycle phase subG1,[4],85%
same,% cells in cell cycle phase G1,[5],130%
same,% cells in cell cycle phase G2/M,[5],101%
same,% cells in cell cycle phase S,[5],59%
same,% cells in cell cycle phase aneuploid,[5],100%
same,% cells in cell cycle phase subG1,[5],90%
"345395 (AAGGGATTCCTGGGAAAACTGGAC; sugars from the 5' end e5 d10 e9, all phosphorothioate, methylation of C not given here) [compound 345395]",% cells aneuploid,[1]; [9],77%
same,% cells in cell cycle phase G1,[1]; [9],54%
same,% cells in cell cycle phase G2/M,[1]; [9],222%
same,% cells in cell cycle phase S,[1]; [9],82%
same,% cells in cell cycle phase subG1,[1]; [9],247%
same,% cells in cell cycle phase: G1,[1]; 150 nM oligomeric compound,51%
same,% cells in cell cycle phase: G2/M,[1]; 150 nM oligomeric compound,157%
same,% cells in cell cycle phase: S,[1]; 150 nM oligomeric compound,192%
same,% cells in cell cycle phase: aneuploid,[1]; 150 nM oligomeric compound,87%
same,% cells in cell cycle phase: subG1,[1]; 150 nM oligomeric compound,213%
same,% cells in cell cycle phase G1,[1]; [8],108%
same,% cells in cell cycle phase G2/M,[1]; [8],95%
same,% cells in cell cycle phase S,[1]; [8],96%
same,% cells in cell cycle phase aneuploid,[1]; [8],139%
same,% cells in cell cycle phase subG1,[1]; [8],87%
same,% cells in cell cycle phase G1,[2],100%
same,% cells in cell cycle phase G2/M,[2],104%
same,% cells in cell cycle phase S,[2],97%
same,% cells in cell cycle phase aneuploid,[2],115%
same,% cells in cell cycle phase subG1,[2],132%
same,% cells in cell cycle phase G1,[3],106%
same,% cells in cell cycle phase G2/M,[3],115%
same,% cells in cell cycle phase S,[3],87%
same,% cells in cell cycle phase aneuploid,[3],150%
same,% cells in cell cycle phase subG1,[3],147%
AACCGATTTCAGATGGTGCTAG (anti-miR; chemistry not fully specified) [ISIS 327928],five markers of adipocyte differentiation,[6],reduce the expression levels of all five markers of adipocyte differentiation
same,tube formation,[7],suppressed tube formation
"ISIS 328744: SEQ ID NO: 653, targeting mir-182 (e[5mC]*eG*eG*eA*eT*d[5mC]*d[5mC]*dT*dG*dT*dT*dA*d[5mC]*d[5mC]*dT*e[5mC]*eA*e[5mC]*e[5mC]*eA)",phase of the cell cycle in which cells arrest or delay,"[1]; HeLa, 150 nM, 48 hours",increase in the percentage of cells in the G2/M-phase of the cell cycle as well as in the subG1 category
same,effect on cell cycling,[2],not affected
same,effect on cell cycling,[5],not affected
